# Reference: patent US20110300240A1, “CAJANUS EXTRACTS AND GLUCOSAMINE FOR INFLAMMATORY DISORDERS” (priority 2009, published 2011)
# Tests used:
# [1] = tested on: RAW264.7 murine macrophage cell line, nitric oxide production; test: Inhibition of nitric oxide production in LPS-stimulated RAW264.7 macrophages (Griess reaction); isobologram for combinations; format: cell-based
# Experimental: (§1) The anti-inflammatory effect of a mixture of Cajanus in combination with glucosamine sulfate was determined in cellular assays by measuring the inhibition of the synthesis of nitric oxide and/or pro-inflammatory prostaglandins (PGE2). PGE2 plays a critical role in the inflammation process, while nitric oxide (NO) is a hallmark of inflammation in various chronic inflammatory diseases including various forms of arthritis, gastro-intestinal diseases and metabolic syndrome X (Creamer P et al 1997 Lancet 350:503-508; Vuolteenaho et al. 2007 Scand. J Rheumatology 36:247-258).
# (§2) The effects on the inflammatory response were tested in cellular assays using a murine macrophage cell line, RAW264.7. […]
# Concentrations of nitrite were determined by the Griess reaction using sodium nitrite as standard. Briefly, 50 ul of supernatant was mixed with Griess reagent 1 (25 uL) and Griess reagent 2 (25 uL), centrifuged and the optical density at 540 nm determined. PGE2 secreted into the cell culture medium was determined by EIA obtained from Cayman Chemicals (Ann Harbor, Wis., USA) and used according to the manufacturer's instructions. […] IC50 values for LPS-stimulated cells were calculated using a […] least-square fitting equation [y=A+((B−A)/(1+((C−x)̂D))] for best-fit curves (Excel fit software program). […]
# [2] = tested on: RAW264.7 murine macrophage cell line, PGE2 production; test: Inhibition of PGE2 synthesis in LPS-stimulated RAW264.7 macrophages (EIA); format: cell-based
# Experimental: as §1, §2
# Concentrations of nitrite were determined by the Griess reaction using sodium nitrite as standard. Briefly, 50 ul of supernatant was mixed with Griess reagent 1 (25 uL) and Griess reagent 2 (25 uL), centrifuged and the optical density at 540 nm determined. PGE2 secreted into the cell culture medium was determined by EIA obtained from Cayman Chemicals (Ann Harbor, Wis., USA) and used according to the manufacturer's instructions. […] IC50 values for LPS-stimulated cells were calculated using a […] least-square fitting equation [y=A+((B−A)/(1+((C−x)̂D))] for best-fit curves (Excel fit software program).
# [3] = Mus musculus, single substances, LPS 1 ug/ml, 24 hours, RAW264.7
smiles,measurement,setting,value
N[C@H]1C(O)O[C@H](CO)[C@@H](O)[C@@H]1O.O=S(=O)(O)O (stereo partly shown) [Glucosamine sulfate],effect on NO production (in words),[1]; LPS-stimulated RAW264.7,no or only a marginal anti-inflammatory
same,IC50,[1]; [3],> 100 µg/mL
same,effect on PGE2 production (in words),[2]; LPS-stimulated RAW264.7,no or only a marginal anti-inflammatory
same,IC50,[2]; [3],> 100 µg/mL
